Experiment: Kinase Assay: In vitro kinase assays were carried out by using recombinant murine c-abl containing SH3, SH2 and kinase domains (residues 46-531) and full length immunoprecipitated Bcr-abl. Recombinant abl was expressed in Sf9 insect cells and purified as described above. Bcr-abl immune complexes were obtained with Ab-3 anti-abl monoclonal antibody (Oncogene Science) from Ba/F3.p210 lysates as previously described. 1 μg of recombinant abl or immunoprecipitated Bcr-abl (from 3×10^6 cells) were incubated with various concentrations of test compound (0.1, 1 and 10 M) in kinase buffer (50 mM Tris-HCl pH 7.5, 10 mM MgCl2, […], 1 mM DTT, 0.015% Brij 35), 100 μM ATP and 1 μCi [γ-32P]-ATP for 30 min at 30° C. (Calbiochem buffer and protocol). The reaction was stopped by addition of Laemmli buffer and the proteins were resolved by SDS-PAGE in a 4-20% gel. The phosphoproteins were visualized by autoradiography and the autophosphorylation quantitated using a phosphoimager (STORM, Molecular Devices).

Compound	IC50
O=C(NCCN1CCOCC1)c1cc2c(Nc3ccc(OC(F)(F)F)cc3)ncnc2s1	> 10 µM
O=C(NC(=O)c1cc2c(Nc3ccc(OC(F)(F)F)cc3)ncnc2s1)c1cccc(C(F)(F)F)c1	1.44 µM
COc1cc(-c2cc(Nc3ccc(OC(F)(F)F)cc3)ncn2)co1	0.94 µM
